The subject of one data set is H-727 cell line. The data set is described as follows: Cell viability assay (XTT), H-727. The format is cell-based, human. Here is the method:
(§1) H-727 and H-460 cell lines, derived from human lung carcinoma, and human prostate carcinoma PC3 cells, were cultured in RPMI 1640 medium supplemented with 10% fetal bovine serum, 1% glutamine and 100 units/ml penicillin/streptomycin (Life Technologies, Inc.). LS174T cells, derived from human colorectal carcinoma, and CAL51 cells, from breast carcinoma, were cultured in DMEM medium supplemented with 10% fetal bovine serum, 1% glutamine and 100 units/ml penicillin/streptomycin (Life Technologies, Inc.). All cell lines were incubated at 37° C. in a humidified atmosphere containing 5% CO2. The stock solution of each compound was reconstituted in DMSO and diluted in culture media before use.
(§2) Antitumor activity was evaluated measuring cell metabolic capacity (viability), using the Cell Proliferation Kit II (XTT) and following the recommendations of the manufacturer (Roche Diagnostics). The assays were carried out in triplicates, with controls containing unexposed cells, cells with vehicle, or media plus compound. Cells were seeded into 96-well plates in 100 μl of media and incubated for 24 h. […] After 4 h of incubation at 37° C., the absorbance at 490 nm was read. The growth inhibitory activity was obtained subtracting the absorbance of the blanks and expressed as percentage of cell growth inhibition, as compared with untreated controls.

In the next data set the test system is LS174T cell line. The data set is described as follows: Cell viability assay (XTT), LS174T. To be noted: 4 h exposure, 20, 40 or 60 μM, in comparison with the comparative compound. Format: cell-based, human. As to the method:
as §1, §2
Background: Formazan colour is commonly taken as a measure of viable cells.

In a further data set the test system is H-460 cell line. As to the kind of experiment: Cell viability assay (XTT), H-460. Format: cell-based, human. As to conditions: H-460, 4 h exposure, 20, 40 or 60 μM, in comparison with the comparative compound. Here is the method:
as §1, §2

Another data set relates to CAL51 cell line. As to the kind of experiment: Cell viability assay (XTT), CAL51. Format: cell-based. As to conditions: CAL51, 4 h exposure, 20, 40 or 60 μM, in comparison with the comparative compound. Here is the method:
as §1, §2

A further data set concerns PC3 cell line. As to the kind of experiment: Cell viability assay (XTT), PC3. The format is cell-based, human. To be noted: PC3, 4 h exposure, 20, 40 or 60 μM, in comparison with the comparative compound. As to the method:
as §1, §2

As to `NS(=O)(=O)c1ccc(-n2cc(C(F)(F)F)cc2-c2cc(C(F)(F)F)cc(C(F)(F)F)c2)cc1` [Example 2, 4-[2-(3,5-Bis(trifluoromethyl)phenyl)-4-(trifluoromethyl)-1H-pyrrol-1-yl]benzenesulfonamide], the tumor cell viability entry with H-727 cell line (H-727, 4 h exposure, 20, 40 or 60 μM, in comparison with the comparative compound) is “significantly reduced tumor cell viability”; with LS174T cell line, “significantly reduced tumor cell viability”; in the data set with H-460 cell line, “significantly reduced tumor cell viability”; in the data set on CAL51 cell line, “significantly reduced tumor cell viability”; in the data set on PC3 cell line, “significantly reduced tumor cell viability”. Besides, in the data set on H-727 cell line (H-727, at 40 μm, 4 h, as compared to the comparative example), the “reduction in the tumor cell viability percentage” value was “more than 50%”.
